The results in this text go back to US20190077774A1, “PEROXISOME PROLIFERATOR-ACTIVATED RECEPTOR AGONISTS” (City of Hope, priority 2017, published 2019).

The structures appear in SMILES notation.

Format in all cases: in vivo
A short description of data set [1]: Blood glucose in treated mice. Conditions: after 4 days (FIG. 16). An excerpt: FIG. 16. Enhanced PPARα expression and/or activity (particularly in concert with PGC-1α) is expected to increase blood glucose by upregulating gluconeogenic enzymes like PEPCK.
(§1) Next, we would like to investigate the therapeutic potential of DY121 to see if it could be candidate for treating NAFLD/NASH. Note that the pathogenesis of NASH has not yet been fully elucidated so far; however, the ‘two-hit’ theory is widely accepted. The first hit is the accumulation of fatty acids in the liver to cause steatosis. […] The newly produced PPARα agonist DY121 and its analogs, as well as WY100=WY14643 and GW3 (GW7647), were evaluated in C57Bl/6J female mice for their ability to alter serum triglyceride, liver gene expression, and glucose. Fibric acid derivatives (100 mg/kg/day) was used as a control, WY100 (WY14, 643, 100 mg/kg/day), GW3 (GW7647-positive control, 3 mg/kg/day), DY121 (˜3 mg/kg/day), respectively. DY series compounds and controls administered once to C57Bl/6J female mice at 8 weeks of age. Mice were treated at 3 mg/kg for all compounds except WY14643 (100 mg/kg).

In data set [2] the test system is PPARα target genes in the liver. Description: Liver gene expression of PPARα targets in treated mice (RT-qPCR). The settings on record: for Cyp4A3 expression: chronic treatment (FIG. 13); for ACADM expression: time course (FIG. 18).
Excerpt: FIG. 6. […] Data in same order as triglyceride suppression (FIG. 5). apo CIII and LPL expression inversely correlate with triglyceride suppression for many, but not all, compounds. ACOX1 and Cyp4A3 expression correlate with triglyceride suppression for many, but not all, compounds.
The following oligonucleotide primers were used to amplify insertion sequences: for PPARα, FW-5′-[…]-3′ (SEQ ID NO:1) and Rev-5′-[…]-3′ (SEQ ID NO:2); for RXRα, FW-5′ […]-3′ (SEQ ID NO:3) and Rev-5′-[…]-3′ (SEQ ID NO:4). It has been well established that PPARα agonists fibrates reduce plasma triglycerides largely by inducing hepatic PPARα-mediated transcription of key proteins in hepatic long-chain fatty acid […], such as CPT1 (carnitine palmitoyltransferase-1). DY121 promoted the expression of PPARα, CPT1, and LPL involved in free fatty acid β-oxidation. The mRNA expressions of the PPARα-regulated genes CPT-Ia and ACADM were measured by real-time quantitative-PCR (RT-qPCR). […] A structural specificity of DY121 may be responsible for this regulation. PPARα is predominantly expressed in liver. PPARα modulates fatty acid catabolism in the liver. We next measured the mRNA expression of PPARα target genes in the liver. PPARα agonists exert their actions and attributed to the activation of PPARα which in turn effects an increase in LPL (lipoprotein lipase) gene expression and transrepression of apoC-III (apolipoprotein C-III). Activation of PPARα by its modulators can increase PPARα levels and activate PPARα pathways, leading to increased fatty-acid oxidation and reduction of oxidative stress. DY121 and its analogs induced the expression of PPARα-regulated genes involved in lipid, glucose, and cholesterol metabolism, such as ACOX1 (acyl-CoA oxidase) and Cyp4A3 (cytochrome P450 gene subfamily). Members of the CYP4A gene subfamily catalyze the oxygenation of biologically important fatty acids.
as §1, with “DY series compounds and controls administered once to C57Bl/6J female mice at 8 weeks of age. Mice were treated at 3 mg/kg for all compounds except WY14643 (100 mg/kg).” left out
A general note: Quantitative PCR measures a nucleic acid by following its amplification.

Data set [3] is described as follows: Body weight and food intake of treated mice. Conditions: time course over 7 days (FIG. 9). As for the experimental part: as §1
The test system of another data set is C57Bl/6J female mice. The data set can be described thus: Serum triglyceride and lipid effects in C57Bl/6J female mice. Conditions: 7 day period (FIG. 10).

With `CC(C)(Sc1ccc(CCN(CCCCC2CCCCC2)C(=O)NC2CCCCC2)cc1)C(=O)O` [GW7647, reference compound], the glucose entry in data set [1] is on record as “increased after 4 days”. Moreover, the “liver CPT-Ia expression” value in data set [2] (chronic (>3 d) treatment (FIG. 17)) is reported as “upregulated”. Moreover, in data set [2] (liver), the Cyp4A3 expression entry is recorded as “consistently”. Moreover, in data set [2], the ACADM expression entry is given as “upregulates”.

As for `Cc1cccc(Nc2cc(Cl)nc(SCC(=O)O)n2)c1C` [WY14643, reference compound], the glucose result in data set [1] is given as “increased after 4 days”. In addition, the weight entry in data set [3] is on record as “caused acute weight loss”. The “triglycerides, chronic treatment” value in the data set with C57Bl/6J female mice was “suppressed triglycerides over the entire 7 day period”. The Cyp4A3 expression result in data set [2] (liver) was “most greatly”. Moreover, in data set [2] (liver, chronic treatment up to 7 days (FIG. 11)), the apoCIII expression entry is “suppressed apoCIII only after 7 days treatment”. In addition, the ACADM expression entry in data set [2] is “upregulates”.
